# Source: PubChem BioAssay (NCI)
#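 These data come from cells grown in 96-well plates and exposed to compound for 48 hours at five concentrations. GI50 marks 50% less growth. The concentration for full growth arrest is given as TGI.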
# Test system: A498 renal
# Assay: NCI-60 cell line screen, 48 h
SMILES,TGI [µM],GI50 [µM]
Cc1cc(N(CCC#N)CCC#N)ccc1/C(N=Nc1ccc(C(=O)O)cc1)=N\NC(=O)c1cc(Cl)ccc1O,87.7,
COc1ccc(-c2nc(/C=N/Nc3cc(C)nc4ccc(Cl)cc34)c(C)o2)cc1,15.2,3.13

# Test system: M14 melanoma
# Assay: NCI-60 cell line screen, 48 h
SMILES,GI50 [µM],TGI [µM]
O=c1oc(Cl)c(Cl)c2ccccc12,41.3,> 100
O=C(NCCNCCCNC(=O)c1cc(-c2ccccc2)nc2ccccc12)c1cccc(O)c1O,,10.4
Cc1ccc(C(CC(=O)c2ccccc2)C2C(=O)NC(=O)NC2=O)cc1 (stereo unspecified),> 100,> 100
Cc1cc(N(CCC#N)CCC#N)ccc1/C(N=Nc1ccc(C(=O)O)cc1)=N\NC(=O)c1cc(Cl)ccc1O,,> 100
COc1ccc(-c2nc(/C=N/Nc3cc(C)nc4ccc(Cl)cc34)c(C)o2)cc1,1.74,3.36

# Test system: HCC-2998 colon
# Assay: NCI-60 cell line screen, 48 h
SMILES,GI50 [µM],TGI [µM]
O=c1oc(Cl)c(Cl)c2ccccc12,44.3,73.9
O=C(NCCNCCCNC(=O)c1cc(-c2ccccc2)nc2ccccc12)c1cccc(O)c1O,,17.4
Cc1ccc(C(CC(=O)c2ccccc2)C2C(=O)NC(=O)NC2=O)cc1 (stereo unspecified),> 100,> 100
Cc1cc(N(CCC#N)CCC#N)ccc1/C(N=Nc1ccc(C(=O)O)cc1)=N\NC(=O)c1cc(Cl)ccc1O,,> 100
COc1ccc(-c2nc(/C=N/Nc3cc(C)nc4ccc(Cl)cc34)c(C)o2)cc1,1.85,3.39

# Test system: HCT-116 colon
# Assay: NCI-60 cell line screen, 48 h
SMILES,GI50 [µM],TGI [µM]
O=c1oc(Cl)c(Cl)c2ccccc12,31.9,71.8
O=C(NCCNCCCNC(=O)c1cc(-c2ccccc2)nc2ccccc12)c1cccc(O)c1O,,28.5
Cc1ccc(C(CC(=O)c2ccccc2)C2C(=O)NC(=O)NC2=O)cc1 (stereo unspecified),> 100,> 100
Cc1cc(N(CCC#N)CCC#N)ccc1/C(N=Nc1ccc(C(=O)O)cc1)=N\NC(=O)c1cc(Cl)ccc1O,,> 100
COc1ccc(-c2nc(/C=N/Nc3cc(C)nc4ccc(Cl)cc34)c(C)o2)cc1,1.82,3.27

# Test system: NCI/ADR-RES ovarian
# Assay: NCI-60 cell line screen, 48 h
SMILES,GI50 [µM],TGI [µM]
O=c1oc(Cl)c(Cl)c2ccccc12,18.1,41.3
O=C(NCCNCCCNC(=O)c1cc(-c2ccccc2)nc2ccccc12)c1cccc(O)c1O,,> 100
Cc1ccc(C(CC(=O)c2ccccc2)C2C(=O)NC(=O)NC2=O)cc1 (stereo unspecified),> 100,> 100
Cc1cc(N(CCC#N)CCC#N)ccc1/C(N=Nc1ccc(C(=O)O)cc1)=N\NC(=O)c1cc(Cl)ccc1O,,> 100
COc1ccc(-c2nc(/C=N/Nc3cc(C)nc4ccc(Cl)cc34)c(C)o2)cc1,1.97,3.95

# Test system: HOP-92 NSCLC
# Assay: NCI-60 cell line screen, 48 h
SMILES,GI50 [µM],TGI [µM]
O=c1oc(Cl)c(Cl)c2ccccc12,3.25,27.9
O=C(NCCNCCCNC(=O)c1cc(-c2ccccc2)nc2ccccc12)c1cccc(O)c1O,,62.9
Cc1ccc(C(CC(=O)c2ccccc2)C2C(=O)NC(=O)NC2=O)cc1 (stereo unspecified),> 100,> 100
COc1ccc(-c2nc(/C=N/Nc3cc(C)nc4ccc(Cl)cc34)c(C)o2)cc1,1.5,2.98

# Test system: HCT-15 colon
# Assay: NCI-60 cell line screen, 48 h
SMILES,GI50 [µM],TGI [µM]
O=c1oc(Cl)c(Cl)c2ccccc12,23.1,61.3
O=C(NCCNCCCNC(=O)c1cc(-c2ccccc2)nc2ccccc12)c1cccc(O)c1O,,26.8
Cc1ccc(C(CC(=O)c2ccccc2)C2C(=O)NC(=O)NC2=O)cc1 (stereo unspecified),> 100,> 100
Cc1cc(N(CCC#N)CCC#N)ccc1/C(N=Nc1ccc(C(=O)O)cc1)=N\NC(=O)c1cc(Cl)ccc1O,,> 100
COc1ccc(-c2nc(/C=N/Nc3cc(C)nc4ccc(Cl)cc34)c(C)o2)cc1,1.52,3.06

# Test system: OVCAR-3 ovarian
# Assay: NCI-60 cell line screen, 48 h
SMILES,GI50 [µM],TGI [µM]
O=c1oc(Cl)c(Cl)c2ccccc12,11.7,27.8
O=C(NCCNCCCNC(=O)c1cc(-c2ccccc2)nc2ccccc12)c1cccc(O)c1O,,26.3
Cc1ccc(C(CC(=O)c2ccccc2)C2C(=O)NC(=O)NC2=O)cc1 (stereo unspecified),> 100,> 100
Cc1cc(N(CCC#N)CCC#N)ccc1/C(N=Nc1ccc(C(=O)O)cc1)=N\NC(=O)c1cc(Cl)ccc1O,,> 100
COc1ccc(-c2nc(/C=N/Nc3cc(C)nc4ccc(Cl)cc34)c(C)o2)cc1,1.81,3.27

# Test system: SF-539 CNS
# Assay: NCI-60 cell line screen, 48 h
SMILES,GI50 [µM],TGI [µM]
O=c1oc(Cl)c(Cl)c2ccccc12,17,38.5
O=C(NCCNCCCNC(=O)c1cc(-c2ccccc2)nc2ccccc12)c1cccc(O)c1O,,11.6
Cc1ccc(C(CC(=O)c2ccccc2)C2C(=O)NC(=O)NC2=O)cc1 (stereo unspecified),> 100,> 100
COc1ccc(-c2nc(/C=N/Nc3cc(C)nc4ccc(Cl)cc34)c(C)o2)cc1,1.97,3.45

# Test system: SF-268 CNS
# Assay: NCI-60 cell line screen, 48 h
SMILES,GI50 [µM],TGI [µM]
O=c1oc(Cl)c(Cl)c2ccccc12,38.2,> 100
O=C(NCCNCCCNC(=O)c1cc(-c2ccccc2)nc2ccccc12)c1cccc(O)c1O,,16.4
Cc1ccc(C(CC(=O)c2ccccc2)C2C(=O)NC(=O)NC2=O)cc1 (stereo unspecified),> 100,> 100
Cc1cc(N(CCC#N)CCC#N)ccc1/C(N=Nc1ccc(C(=O)O)cc1)=N\NC(=O)c1cc(Cl)ccc1O,,42.3

# Test system: IGROV1 ovarian
# Assay: NCI-60 cell line screen, 48 h
SMILES,GI50 [µM],TGI [µM]
O=c1oc(Cl)c(Cl)c2ccccc12,23.2,63.2
O=C(NCCNCCCNC(=O)c1cc(-c2ccccc2)nc2ccccc12)c1cccc(O)c1O,,28.9
Cc1ccc(C(CC(=O)c2ccccc2)C2C(=O)NC(=O)NC2=O)cc1 (stereo unspecified),> 100,> 100
Cc1cc(N(CCC#N)CCC#N)ccc1/C(N=Nc1ccc(C(=O)O)cc1)=N\NC(=O)c1cc(Cl)ccc1O,,59
COc1ccc(-c2nc(/C=N/Nc3cc(C)nc4ccc(Cl)cc34)c(C)o2)cc1,1.76,3.36

# Test system: MOLT-4 leukemia
# Assay: NCI-60 cell line screen, 48 h
SMILES,GI50 [µM],TGI [µM]
O=c1oc(Cl)c(Cl)c2ccccc12,9.19,78.2
O=C(NCCNCCCNC(=O)c1cc(-c2ccccc2)nc2ccccc12)c1cccc(O)c1O,,> 100
Cc1ccc(C(CC(=O)c2ccccc2)C2C(=O)NC(=O)NC2=O)cc1 (stereo unspecified),> 100,> 100
Cc1cc(N(CCC#N)CCC#N)ccc1/C(N=Nc1ccc(C(=O)O)cc1)=N\NC(=O)c1cc(Cl)ccc1O,,> 100

# Test system: HS 578T breast
# Assay: NCI-60 cell line screen, 48 h
SMILES,GI50 [µM],TGI [µM]
O=c1oc(Cl)c(Cl)c2ccccc12,35.1,96.2
O=C(NCCNCCCNC(=O)c1cc(-c2ccccc2)nc2ccccc12)c1cccc(O)c1O,,> 100
Cc1ccc(C(CC(=O)c2ccccc2)C2C(=O)NC(=O)NC2=O)cc1 (stereo unspecified),> 100,> 100
Cc1cc(N(CCC#N)CCC#N)ccc1/C(N=Nc1ccc(C(=O)O)cc1)=N\NC(=O)c1cc(Cl)ccc1O,,47.1
COc1ccc(-c2nc(/C=N/Nc3cc(C)nc4ccc(Cl)cc34)c(C)o2)cc1,1.84,3.79

# Test system: CAKI-1 renal
# Assay: NCI-60 cell line screen, 48 h
SMILES,GI50 [µM],TGI [µM]
O=c1oc(Cl)c(Cl)c2ccccc12,21.5,39.6
O=C(NCCNCCCNC(=O)c1cc(-c2ccccc2)nc2ccccc12)c1cccc(O)c1O,,> 100
Cc1ccc(C(CC(=O)c2ccccc2)C2C(=O)NC(=O)NC2=O)cc1 (stereo unspecified),> 100,> 100
Cc1cc(N(CCC#N)CCC#N)ccc1/C(N=Nc1ccc(C(=O)O)cc1)=N\NC(=O)c1cc(Cl)ccc1O,,> 100
COc1ccc(-c2nc(/C=N/Nc3cc(C)nc4ccc(Cl)cc34)c(C)o2)cc1,1.63,2.98

# Test system: A549 NSCLC
# Assay: NCI-60 cell line screen, 48 h
SMILES,GI50 [µM],TGI [µM]
O=c1oc(Cl)c(Cl)c2ccccc12,54.2,> 100
O=C(NCCNCCCNC(=O)c1cc(-c2ccccc2)nc2ccccc12)c1cccc(O)c1O,,> 100
Cc1ccc(C(CC(=O)c2ccccc2)C2C(=O)NC(=O)NC2=O)cc1 (stereo unspecified),> 100,> 100
